Here are results for six compounds from patent US7705119B1, “Compositions and methods useful for treating circulatory and hypovolemic shock” (University of Kentucky Research Foundation, priority 2007, dated 2010).

Entries after “also recorded” stand apart in the source; their conditions may differ. Square brackets hold non-standard residues; d marks the D form. Peptide text beside a SMILES is read from it.

In series [1] the test system is Sprague-Dawley rats. Briefly: 30 minute inhibitor pre-treatment before 5.5 mg/kg Delt-E post hemorrhage injection. The format is in vivo, rat. The conditions noted are these: for Maximum HR in BPM ± S.E. / Maximum MAP in mmHg ± S.E. / Survival Time in minutes ± S.E.: then 5.5 mg/kg Delt-E post hemorrhage. The text has this: The hemorrhagic shock model used was a volume-controlled model similar to that of Summers et al. Acad Emerg Med. 10:587-93 (2003). Forty-six male Sprague-Dawley rats (about 341-411 grams) were acclimated to a laboratory environment for a week. In dwelling heparinized PE 10 catheters were placed in the femoral artery and the femoral vein of anesthetized rats. The two catheters were combined and exited suprascapularly, tied in place with braided silk, and covered with a piece of hypoallergenic mesh to prevent kinking. Rats were then placed in recovery cages for 24 hr, allowed access to food and water, and allowed unrestricted access to both catheters. The femoral artery catheter was used for volume-controlled hemorrhage and blood pressure measurements and the femoral vein catheter was used for Delt-E infusion. Each selected animal was randomly assigned 1 of […] post hemorrhage treat groups: 1 mL/100 g saline control (n=6), 2.85 mg/kg Delt-E (n=6), 4.2 mg/kg Delt-E (n=6), 5.5 mg/kg Delt-E (n=6), and 14 mg/kg Delt-E (n=6). Animals were also selected and randomly assigned to 1 of 4, 30-minute pre-treatment inhibitor groups: Naltriben Methane Sulfonate (NTB) (n=4), Naltrexone (n=4), Glibenclamide (n=4), and 7-Dehydrobenzylidine naltrexone (BNTX) (n=4) followed by a 5.5 mg/kg injection of Delt-E.
Opioid Inhibitors: The opioid inhibitors (naltrexone, naltriben methane sulfonate (NTB) and 7 Dehydrobenzylidine naltrexone (BNTX) and Glibenclamide were administered 30 minutes prior to hemorrhage. MAP and HR were recorded continuously before hemorrhage to ensure no adverse affects on MAP or HR occurred as a result of the pre-injection. At the end of 30 minutes, volume-controlled hemorrhage was induced followed by a post hemorrhage injection of 5.5 mg/kg Delt-E, the optimal dose found to increase hemodynamic stability. Naltrexone (10 mg/kg, Sigma-Aldrich), NTB (1 mg/kg, Sigma-Aldrich), and BNTX (1 mg/kg, Tocris Bioscience) were used as 30 minute pre-injection opioid receptor antagonists. Glibenclamide (10 mg/kg, Sigma Aldrich) was used as a KATP channel blocker.
Data Analysis: Statistical analysis was preformed using SPSS software with P value <0.05 being considered significant. The survival, MAP, HR and lactic acid values were analyzed using repeated measures analysis of variance (ANOVA) between groups to identify differences between groups. To evaluate differences between means, the ANOVA with post hoc least square differences were used (LSD analysis).

For another series, the system named is KATP channels. The conditions noted are these: Wild et al. 1991; cited from earlier work.
Series [2] relates to Sprague-Dawley rats. Briefly: Post hemorrhage Delt-E infusion, volume-controlled hemorrhagic shock model without fluid resuscitation. The conditions noted are these: 14.0 mg/kg i.v. post hemorrhage. The format is in vivo, rat. The text has this:
A murine hemorrhagic shock model was used to evaluate the effects of administration of Deltorphin-E (Delt-E), without concomitant fluid resuscitation, on hemodynamic status, plasma lactate levels, and survival rates.
The hemorrhagic shock model used was a volume-controlled model similar to that of Summers et al. Acad Emerg Med. 10:587-93 (2003). Forty-six male Sprague-Dawley rats (about 341-411 grams) were acclimated to a laboratory environment for a week. In dwelling heparinized PE 10 catheters were placed in the femoral artery and the femoral vein of anesthetized rats. […]
Treatment: Twenty-four hours after catheter placement, test rats (n=24) were infused in the femoral vein with either 2.85, 4.2, 5.5 or 14 mg/kg of Delt-E (Tyr-D-Ala-Phe-Ala-Ile-Gly-Asp-Phe-Ser-Ile-NH2; SEQ ID NO: 1) dissolved in 1.0 ml Lactated Ringers (LR) solution pH 7.4. […] Prior to hemorrhage MAP and HR were recorded to establish baseline levels. […] After the final mL of blood was removed the various venous catheter treatment injections were administered, MAP and HR were recorded continuously for the duration of survival or up to 6 hours.
Biomarker protocols: Survival time was determined by the post hemorrhage time after injection until death, or a predetermined 360 minute survival interval. […] Pulse pressure was determined by the difference (mmHg) between the systolic and diastolic pressure during a single cardiac cycle. […]

[3] abbreviates: inhibitor 10 mg/kg 30 min prior to hemorrhage.
The mark [4] stands for this setting: inhibitor 1 mg/kg 30 min prior to hemorrhage.

For the compound `O=C1CC[C@@]2(O)[C@H]3Cc4ccc(O)c5c4[C@@]2(CCN3CC2CC2)[C@H]1O5` [Naltrexone], in the series with Sprague-Dawley rats [1] (setting [3]), the “blockade of post hemorrhage hemodynamic recovery / survival benefits of 5.5 mg/kg Delt-E” value was “partially blocked”, the “Maximum HR in BPM ± S.E.” value is 419 ± 75 BPM, the “Maximum MAP in mmHg ± S.E.” value is listed as 49 ± 8 mmHg and the “Survival Time in minutes ± S.E.” value was 95 ± 11 min.

Regarding DPDPE, the “cardioprotective effect in the presence of Glibenclamide” value with KATP channels is “could be negated by Glibenclamide”.

Turning to `Oc1ccc2c3c1O[C@H]1c4oc5ccccc5c4C[C@@]4(O)[C@@H](C2)N(CC2CC2)CC[C@]314` [NTB, Naltriben Methane Sulfonate], in the series with Sprague-Dawley rats [1] (setting [4]), the “blockade of post hemorrhage hemodynamic recovery / survival benefits of 5.5 mg/kg Delt-E” value is “blocked”, the “Maximum HR in BPM ± S.E.” value amounted to 423 ± 68 BPM, the “Maximum MAP in mmHg ± S.E.” value amounted to 37 ± 13 mmHg and the “Survival Time in minutes ± S.E.” value turned out to be 58 ± 12 min.

Consider `CC[C@H](C)[C@H](NC(=O)[C@H](CO)NC(=O)[C@H](Cc1ccccc1)NC(=O)[C@H](CC(=O)O)NC(=O)CNC(=O)[C@@H](NC(=O)[C@H](C)NC(=O)[C@H](Cc1ccccc1)NC(=O)[C@@H](C)NC(=O)[C@@H](N)Cc1ccc(O)cc1)[C@@H](C)CC)C(N)=O` [Delt-E, Tyr-(D-Ala)-Phe-Ala-Ile-Gly-Asp-Phe-Ser-Ile-NH2] (H-Y[dA]FAIGDFSI-NH2), for which the Toxicity of dose result with Sprague-Dawley rats [2] is reported as “toxic”.

Turning to `COc1ccc(Cl)cc1C(=O)NCCc1ccc(S(=O)(=O)NC(=O)NC2CCCCC2)cc1` [Glibenclamide], in the series with Sprague-Dawley rats [1] (setting [3]), the “blockade of post hemorrhage hemodynamic recovery / survival benefits of 5.5 mg/kg Delt-E” value is reported as “did not alter the survival advantage; also recorded: not blocked”, the “Maximum HR in BPM ± S.E.” value is given as 393 ± 43 BPM, the “Maximum MAP in mmHg ± S.E.” value was found to be 56 ± 10 mmHg and the “Survival Time in minutes ± S.E.” value stood at 347 ± 15 min.

Consider `O=C1/C(=C/c2ccccc2)C[C@@]2(O)[C@H]3Cc4ccc(O)c5c4[C@@]2(CCN3CC2CC2)[C@H]1O5` [BNTX, 7-Dehydrobenzylidine naltrexone], for which, in the series with Sprague-Dawley rats [1] (setting [4]), the “blockade of post hemorrhage hemodynamic recovery / survival benefits of 5.5 mg/kg Delt-E” value is recorded as “did not block”, the “Maximum HR in BPM ± S.E.” value is on record as 400 ± 77 BPM, the “Maximum MAP in mmHg ± S.E.” value was 55 ± 12 mmHg and the “Survival Time in minutes ± S.E.” value stood at 356 ± 3 min.
